Reference: paper PMC8313270 (Microbial Biotechnology, 2021)

Tested on: StdA-His
Assay: toxoflavin degradation assay, Lineweaver-Burk plot
Type: biochemical, Sphingomonas adhaesiva
Conditions: 50 mM sodium phosphate pH 8.0, 5 mM DTT, 28°C, no metal added

**Q.** `Cn1ncnc2c(=O)n(C)c(=O)nc1-2` [toxoflavin, 1,6‐dimethylpyrimido[5,4‐e]‐1,2,4‐triazine‐5,7(1H,6H) dione] was tested. Which Km did it give?
**A.** 65 µM
